Experimental data published in publication PMC3703888, “Integration of Different “-omics” Technologies Identifies Inhibition of the IGF1R-Akt-mTOR Signaling Cascade Involved in the Cytotoxic Effect of Shikonin against Leukemia Cells” (Evidence-based Complementary and Alternative Medicine : eCAM, 2013).
Entries after “also recorded” stand apart in the source; their conditions may differ.

Key:
p-ribosomal protein S6 = assay: FlowCellect PI3K-mTOR signaling cascade assay (flow cytometry), p-ribosomal protein S6; assay type: cell-based; conditions: U937 cells, 0.3 μM shikonin, 24 h
Excerpt: The FlowCellect PI3K-mTOR signaling cascade assay kit (Merck Millipore, Germany) was used to analyze the effect of shikonin on the PI3K-mTOR signaling pathway. The assay is based on two directly conjugated phospho-specific signaling antibodies against phosphorylated Akt and phosphorylated ribosomal S6 protein, which are both important signaling nodes of the mTOR cascade. The phosphorylation of Akt is indicative of the upstream PI3K signaling, marking the cells initiation into proliferation or cell survival. Phosphorylated-ribosomal S6 protein is indicative of downstream mTOR and p70S6K signaling leading to protein translation. The assay was performed according to the manufacture's protocol. Briefly, 1.5 × 10^6 U937 cells were treated with 0.3 μM shikonin or DMSO solvent control and incubated for 24 h. Subsequently, cells were fixed on ice for 20 min using the supplied fixation buffer. […] Subsequently, cells were measured in a LSR-Fortessa FACS analyzer (Becton-Dickinson, Germany) and shikonin fluorescence was compensated for the respective channels. For each sample, 1 × 10^4 cells were counted. The PerCP signal was measured with 488 nm excitation and detected using a 670/30 nm bandpass filter. The Alexa Fluor 488 signal was analyzed with 488 nm excitation and detected using a 530/30 nm bandpass filter. […] Cytographs were analyzed using FlowJo software (Celeza, Switzerland). […]

U937 leukemia cells = assay: Resazurin reduction assay (cytotoxicity); assay type: cell-based; conditions: Homo sapiens, U-937, 24 h treatment, read-out: IC50 (inhibition of U937 proliferation by 50%)
Procedure: Resazurin reduction assay was performed to assess cytotoxicity of shikonin toward U937 cells. The assay is based on reduction of the indicator dye, resazurin, to the highly fluorescent resorufin by viable cells. Nonviable cells rapidly lose the metabolic capacity to reduce resazurin and thus produce no fluorescent signal. Briefly, aliquots of 2 × 10^4 U937 cells per well were seeded in 96-well plates in a total volume of 100 μL. Shikonin was immediately added in varying concentrations in an additional 100 μL of culture medium to obtain a total volume of 200 μL/well. After 24 h, 20 μL resazurin (Sigma-Aldrich, Germany) 0.01% w/v in ddH2O was added to each well and the plates were incubated at 37°C for 4 h. Fluorescence was measured on an Infinite M2000 Pro plate reader (Tecan, Germany) using an excitation wavelength of 544 nm and an emission wavelength of 590 nm. Each assay was done at least two times, with six replicates each. The viability was evaluated based on a comparison with untreated cells. IC50 value represents the shikonin concentrations required to inhibit 50% of cell proliferation and was calculated from a calibration curve by linear regression using Microsoft Excel.

U937 cells = assay: miRNA microarray; assay type: cell-based, human; conditions: shikonin at IC50 concentration, 24 h
Procedure: miRNA from U937 cells after 24 h of treatment with shikonin at IC50 concentration was isolated using miRNeasy Kit from Qiagen (Hilden, Germany) according to the manufacture's instruction. The quality of miRNA was checked by gel analysis using the Small RNA Nano chip assay on an Agilent 2100 Bioanalyzer (Agilent Technologies GmbH, Germany). The miRNA microarray was performed at the Institute for Molecular Biology (IMB). Microarray experiments were performed in duplicates for treated and untreated samples. Human miRNA microarray chips (8 × 60 K, Agilent Technologies) were used. Probe labeling and hybridization were carried out following the miRNA microarray system with miRNA complete labeling and hyb kit protocol (Agilent Technologies). Briefly, extracted RNA was treated with phosphatase. Dephosphorylated RNA was fluorescently labeled by ligation of Cyanine 3-pCp molecules to the 3′ end of RNA molecules using Agilent's miRNA Complete Labeling and Hyb Kit. The labeled RNA was desalted and hybridized for 20 hours at 55°C and 20 rpm. Microarray slides were washed and scanned with Agilent Microarray Scanning system. Images were analyzed and data were extracted, background subtracted, and normalized using the standard procedures of Agilent Feature Extraction Software. The expression data obtained was filtered with Chipster data analysis platform. These steps include filtering of miRNAs by two times standard deviation of deregulated genes and a subsequent assessment of significance using empirical Bayes t-test (P < 0.05).

`CC(C)=CC[C@@H](O)C1=CC(=O)c2c(O)ccc(O)c2C1=O` [shikonin] was tested, and the “Phosphorylation of ribosomal protein S6” value (p-ribosomal protein S6) was “remained almost unchanged; also recorded: no effect”, the IC50 (U937 leukemia cells) was 300 nM and the “FC miRNA miR-19b-2-5p” value (U937 cells) was “+5.2”. For the same compound, the “FC miRNA miR-20b-3p” value (U937 cells) was “+3.7”, the “FC miRNA miR-30a-3p” value (U937 cells) was “+2.9” and the “FC miRNA miR-33b-5p” value (U937 cells) was “+3.1”. For the same compound, the “FC miRNA miR-92a-3p” value (U937 cells) was “+2.7”, the “FC miRNA miR-155-3p” value (U937 cells) was “+3.4” and the “FC miRNA miR-181a-2-3p” value (U937 cells) was “+3.2”. The “FC miRNA miR-193b-3p” value (U937 cells) was “+2.7”, the “FC miRNA miR-223-5p” value (U937 cells) was “+2.7” and the “FC miRNA miR-513a-5p” value (U937 cells) was −4.7. For the same compound, the “FC miRNA miR-630” value (U937 cells) was −5.1, the “FC miRNA miR-638” value (U937 cells) was −6.1 and the “FC miRNA miR-1185-5p” value (U937 cells) was −5.2. The “FC miRNA miR-1207-5p” value (U937 cells) was −6.3, the “FC miRNA miR-1246” value (U937 cells) was −6.0 and the “FC miRNA miR-1290” value (U937 cells) was −6.2. The “FC miRNA miR-1915-3p” value (U937 cells) was −13.8, the “FC miRNA miR-2861” value (U937 cells) was −9.8 and the “FC miRNA miR-3907” value (U937 cells) was “+2.8”. The “FC miRNA miR-4299” value (U937 cells) was −30.6.
